# Source: patent US11185530B2, “Composition for preventing or treating hearing loss, containing atorvastatin as active ingredient” (AJOU UNIVERSITY INDUSTRY-ACADEMIC COOPERATION FOUNDATION, priority 2017, dated 2021)
# Columns and labels:
# [1] = tested on: diabetic mouse model; assay: Body weight, blood glucose, glucose tolerance and insulin tolerance in diabetic mouse model; assay type: in vivo, C57/BL6J male mice; details: 12-week diabetic mice, 20 mg/kg i.p. once every 2 days for 5 weeks, vs control group
# Experimental: The diabetes-mediated hearing loss model was fed with 60% high fat/30% fructose water for 12 weeks and bred to induce diabetes. The diabetes model was established by measuring blood glucose levels, and testing glucose tolerance and insulin tolerance once every two weeks for 12 weeks, weighing weekly and conducting food/water intake efficiency tests twice weekly.
# The experimental group was divided into an atorvastatin group (n=15, 20 mg/kg) and a control (vehicle) group (n=15, DMSO+normal saline) and intraperitoneal administration was conducted once every 2 days for 5 weeks. During the drug administration period, body weight and food intake efficiency tests were performed. Hearing tests, blood glucose measurement, and glucose and insulin tolerance tests were performed immediately before the end of the administration period.
# In addition, body weight, blood glucose level, glucose tolerance and insulin tolerance were measured in the experimental group, obtained by administering atorvastatin to the 12-week diabetic mice, and in the control group. […] All statistical significance was analyzed using one-way ANOVA of SPSS program and student's T-tests.
# [2] = tested on: HEI-OC1 cells; assay: Western blotting of cleaved caspase-3, PARP and AKT phosphorylation; assay type: cell-based
# [3] = tested on: auditory cell line (HEI-OC1); assay: WST-1 assay of cytotoxicity and cell viability; assay type: cell-based
# Experimental: The effect of palmitate on cytotoxicity and cell viability of the auditory cell line (HEI-OC1) was quantitatively analyzed through a WST-1 assay.
# In order to evaluate the function of atorvastatin against the cytotoxicity of palmitate, atorvastatin was pre-treated at each concentration and palmitate was post-treated at each concentration.
# The cytotoxic and apoptotic effects of palmitate and the cytoprotective effect of atorvastatin were analyzed using a student's T-test for statistical significance through quantification.
# [4] = tested on: auditory cell line (HEI-OC1); assay: ATP detection luminescence; assay type: cell-based; details: total extract of cells, palmitate plus atorvastatin
# Experimental: In addition, the effects of atorvastatin on the protection of cells and on energy metabolisms were evaluated using ATP detection luminescence.
# [5] = tested on: cochlea of the diabetic mouse model; assay: H&E staining and immunohistochemistry (DHE, TUNEL) of cochlea of diabetic mouse model; assay type: in vivo, C57/BL6J male mice
# Experimental: Damage to cochlear hair cells around the base and middle turn (16 kHz) region, fibrocytes of the lateral wall and spiral ganglion cells of the cochlea of the diabetic mouse model established in Example 1 was evaluated through H & E (hematoxylin and eosin) staining and immunohistochemistry.
# Then, the auditory cells (cochlear hair cells) were observed through immunohistochemistry.
# The spiral ganglion cells were analyzed by H & E staining.
# Stria vascularis cells in the lateral wall in the cochlea (inner ear) were analyzed by H & E staining.
# [6] = tested on: auditory cell line (HEI-OC1); assay: DCFDA staining of reactive oxygen species; assay type: cell-based; details: HEI-OC1, palmitate and atorvastatin
# [7] = tested on: auditory cell line (HEI-OC1); assay: TUNEL immunostaining quantified by fluorescence microscopy; assay type: cell-based; details: HEI-OC1, combination of palmitate and atorvastatin
# [8] = tested on: mouse model of age-related hearing loss; details: Neuroscience Letters, 2007; cited from earlier work
# [9] = tested on: noise-induced hearing loss rat model; details: low dose, 5 mg/kg; Int J Occup Environ Med, 2016; cited from earlier work
# [10] = tested on: breast cancer cell xenograft model; details: Front. Med. China, 2009; cited from earlier work
# [11] = tested on: obese C57 mice; details: Lipids in Health and Disease, 2014; cited from earlier work
# [12] = tested on: HEI-OC1 cells; assay: PI staining and cell morphology analysis of apoptosis; assay type: cell-based; details: HEI-OC1, 24 hours, 200 to 800 μM tested
# Experimental: As a cell experiment model that replaces the diabetic mouse model through a high fat/fructose diet, that is, obesity, a cytotoxicity experiment model based on saturated fatty acid palmitate, which is an intermediate product of lipid synthesis that is excessively abundant during obesity, has been devised. HEI-OC1 (house-ear institute-organ of Corti 1), the auditory cell line conducting the major auditory function, was used, and the diabetes-mediated hearing loss cell line model was treated with palmitate.
# In order to evaluate apoptosis, 24 hours after HEI-OC1 cells, the auditory cell line, were treated with 200 to 800 μM of palmitate, PI (propidium iodide) staining and the cell morphology thereof were analyzed. As a result, cell apoptosis was induced with a change in cell morphology from the palmitate concentration of 200 μM, and this phenomenon became more apparent as the concentration increased (FIG. 4 in part A).
# [13] = atorvastatin-administered diabetic mice
smiles,measurement,setting,value
CC(C)c1c(C(=O)Nc2ccccc2)c(-c2ccccc2)c(-c2ccc(F)cc2)n1CC[C@@H](O)C[C@@H](O)CC(=O)O [atorvastatin],blood glucose level,[1],significantly improved
same,body weight,[1],reduced
same,glucose tolerance (GTT),[1],significantly improved
same,insulin tolerance (ITT),[1],significantly improved
same,phosphorylation of AKT after treatment with atorvastatin,"[2]; HEI-OC1, by concentration and time",increased
same,AKT protein phosphorylation under palmitate treatment,"[2]; HEI-OC1, palmitate plus atorvastatin",inhibited the reduction of AKT protein phosphorylation
same,"cytotoxicity, treatment only with atorvastatin","[3]; 250, 500 or 1,000 nM, HEI-OC1",cytotoxicity was not observed
same,palmitate-induced apoptosis (WST-1 cell viability),"[3]; atorvastatin pre-treated, palmitate post-treated, 24 hours",significantly inhibited
same,production of mitochondrial energy (ATP),[4],maintained the production of mitochondrial energy (ATP)
same,TUNEL expression in spiral ganglion cells,[5]; [13],suppressed
same,apoptosis (TUNEL) of stria vascularis cells,[5]; [13],markedly suppressed
same,enlargement of stria vascularis tissue of the lateral wall (H&E),[5]; [13],not observed
same,reactive oxygen species in cochlear hair cells (DHE immunohistochemistry),[5]; [13],"decreased reactive oxygen species, like normal mice"
same,spiral ganglion cell size and nucleus morphology (H&E),[5]; atorvastatin-administered diabetic mice vs normal group,"larger cell size than that of the normal group, but had no change in nucleus morphology"
same,morphology of cochlear hair cells (H&E),[5]; diabetic mice administered with atorvastatin,no morphological changes
same,generation of reactive oxygen species (DCFDA),[6],statistically significantly inhibit
same,number of TUNEL-stained cells,[7],statistically decreased
same,hearing loss in age-related hearing loss model,[8],delaying or inhibiting hearing loss
same,hearing loss in noise-induced model,[9],statistically significant effect of inhibiting hearing loss
same,tumor growth and metastasis,[10],inhibit tumor growth and metastasis
same,obesity-induced type 2 diabetes,[11],inhibits obesity-induced type 2 diabetes
CCCCCCCCCCCCCCCC(=O)O [palmitate],concentration from which cell apoptosis with change in cell morphology was induced,[12],≥ 200 μM
same,cytotoxicity (WST-1 cell viability assay),"[3]; 24 hours, palmitate at 100, 200 and 400 μM",20 to 40%
